In data set [1] the target is T1, CYP3A4 (Homo sapiens, UniProt P08684). The note with it: read-out: IC50, literature value; cited from earlier work.
In data set [2] the target is T1, CYP3A4. Briefly: Inhibition of CYP3A4-catalyzed testosterone metabolism in Baculosomes.
Data set [3] deals with pooled human liver microsomes. The data set is classed as in vitro ADME. The note with it: substrates dextromethorphan (CYP2D6), diclofenac (CYP2C9), phenacetin (CYP1A2), testosterone (CYP3A4).
Data set [4] concerns the target T2, CYP1A2 (Homo sapiens, UniProt P05177).
T2 sequence (P05177 1-516): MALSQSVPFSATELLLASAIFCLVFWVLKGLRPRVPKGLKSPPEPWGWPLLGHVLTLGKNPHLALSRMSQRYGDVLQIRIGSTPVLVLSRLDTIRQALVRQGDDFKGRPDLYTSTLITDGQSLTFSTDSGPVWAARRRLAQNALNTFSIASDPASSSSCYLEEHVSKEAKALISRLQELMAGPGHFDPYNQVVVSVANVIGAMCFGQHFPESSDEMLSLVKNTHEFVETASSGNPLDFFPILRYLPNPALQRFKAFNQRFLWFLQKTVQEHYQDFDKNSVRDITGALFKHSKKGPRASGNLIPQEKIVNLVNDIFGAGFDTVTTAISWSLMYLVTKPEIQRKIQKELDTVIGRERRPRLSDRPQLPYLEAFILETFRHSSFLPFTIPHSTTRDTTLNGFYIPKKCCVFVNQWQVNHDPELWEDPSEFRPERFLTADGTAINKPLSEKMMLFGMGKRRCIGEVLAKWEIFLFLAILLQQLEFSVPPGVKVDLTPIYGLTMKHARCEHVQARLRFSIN
The note with it: CYP1A2, substrate conc. 500 μM.

Data set [5] deals with T2, CYP1A2. The following applies: CYP1A2, substrate conc. 500 μM. The source holds these as a separate data set.
For data set [6], the target named is T3, CYP2D6 (Homo sapiens, UniProt P10635). As to the kind of experiment: MesaPlate metabolic stability. The data set is classed as in vitro ADME.
Data set [7] addresses T3, CYP2D6. Briefly: Metabolic stability measured with chromatography. The data set is classed as in vitro ADME.
The target in data set [8] is T4, CYP2C9 (Homo sapiens, UniProt P11712). Briefly: in vitro.
Data set [9] deals with T4, CYP2C9.
Data set [10] concerns the target T4, CYP2C9. The following applies: cited from earlier work.
In data set [11] the target is T1, CYP3A4. As to the kind of experiment: MesaPlate metabolic stability.

Like-named read-outs stand apart in the source and are kept apart here.

The values below come from PMC3179854 (Journal of the American Chemical Society, 2011).

T4 sequence (P11712 whole entry): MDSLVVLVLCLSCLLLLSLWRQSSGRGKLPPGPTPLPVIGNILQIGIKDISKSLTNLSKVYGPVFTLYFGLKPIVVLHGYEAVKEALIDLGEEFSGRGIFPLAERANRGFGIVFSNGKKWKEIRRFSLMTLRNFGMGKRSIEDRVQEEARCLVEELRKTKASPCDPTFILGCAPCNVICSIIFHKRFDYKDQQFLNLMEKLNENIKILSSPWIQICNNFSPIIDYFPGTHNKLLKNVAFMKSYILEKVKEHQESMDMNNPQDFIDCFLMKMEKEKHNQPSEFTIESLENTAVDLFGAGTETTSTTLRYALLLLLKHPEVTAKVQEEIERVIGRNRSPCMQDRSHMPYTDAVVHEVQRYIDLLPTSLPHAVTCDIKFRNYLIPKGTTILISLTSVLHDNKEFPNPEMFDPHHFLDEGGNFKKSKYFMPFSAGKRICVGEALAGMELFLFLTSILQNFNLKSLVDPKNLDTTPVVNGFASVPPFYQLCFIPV
T3 sequence (P10635 whole entry): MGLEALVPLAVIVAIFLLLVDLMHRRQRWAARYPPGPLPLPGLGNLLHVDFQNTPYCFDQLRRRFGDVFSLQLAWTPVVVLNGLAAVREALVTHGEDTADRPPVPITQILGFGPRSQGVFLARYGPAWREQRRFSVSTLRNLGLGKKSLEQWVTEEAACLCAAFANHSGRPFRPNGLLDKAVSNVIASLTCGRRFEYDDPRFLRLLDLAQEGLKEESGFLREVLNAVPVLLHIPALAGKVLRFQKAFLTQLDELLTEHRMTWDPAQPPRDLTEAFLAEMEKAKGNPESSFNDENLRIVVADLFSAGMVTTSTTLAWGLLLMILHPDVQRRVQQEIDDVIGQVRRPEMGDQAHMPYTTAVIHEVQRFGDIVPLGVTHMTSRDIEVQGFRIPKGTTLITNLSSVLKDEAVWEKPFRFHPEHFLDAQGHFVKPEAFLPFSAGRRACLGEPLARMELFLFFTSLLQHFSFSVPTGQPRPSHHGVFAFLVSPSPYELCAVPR
T1 sequence (P08684 whole entry): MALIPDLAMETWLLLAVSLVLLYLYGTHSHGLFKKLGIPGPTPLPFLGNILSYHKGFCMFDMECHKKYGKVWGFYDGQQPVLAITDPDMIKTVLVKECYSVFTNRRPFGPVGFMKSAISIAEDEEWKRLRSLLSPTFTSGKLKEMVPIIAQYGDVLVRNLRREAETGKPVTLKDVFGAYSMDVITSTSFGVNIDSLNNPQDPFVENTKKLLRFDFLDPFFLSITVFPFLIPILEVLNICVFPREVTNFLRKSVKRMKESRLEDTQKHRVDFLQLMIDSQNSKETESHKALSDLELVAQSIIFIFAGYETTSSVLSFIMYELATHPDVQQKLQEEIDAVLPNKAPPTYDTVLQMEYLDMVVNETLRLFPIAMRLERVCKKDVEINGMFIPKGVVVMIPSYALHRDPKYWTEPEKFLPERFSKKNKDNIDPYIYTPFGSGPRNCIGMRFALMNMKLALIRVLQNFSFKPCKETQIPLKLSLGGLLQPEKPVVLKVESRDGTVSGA

For the molecule `c1ccc(-n2ccnc2)cc1` [1-phenylimidazole], the half-inhibitory concentration (IC50) on CYP3A4 [1] is 2.7 µM; against CYP3A4 [2], 2.39 ± 0.01 µM. Further, the “measured rate of P450 oxidation in the presence of inhibitor” value in data set [3] was “much lower”.

As to `Cc1c[nH]c2ccccc12` [3-methylindole], the “−rRH (metabolic stability), Chromatography” value (shortened to “−rRH … Chromatography”) on CYP1A2 [4] was determined as 10.7 ± 0.8 nmol/min/nmol P450. The “−rRH (metabolic stability), MesaPlate” value on CYP1A2 [5] was determined as 15.8 ± 1.8 nmol/min/nmol P450.

As for `CN(C)CCC=C1c2ccccc2CCc2ccccc21` [Amitriptyline], the “−rRH (metabolic stability), MesaPlate” value on CYP2D6 [6] (CYP2D6, substrate conc. 60 μM) was 6.7 ± 0.8 nmol/min/nmol P450. Also, on CYP2D6 [7] (CYP2D6, substrate conc. 60 μM), the “−rRH … Chromatography” value worked out at 3.8 ± 0.4 nmol/min/nmol P450.

Consider `O=C(O)Cc1ccccc1Nc1c(Cl)cccc1Cl` [Diclofenac], for which, at CYP2C9 [8], the Km was 20 ± 7 µM. For the same molecule, the “kcat (MesaPlate)” value on CYP2C9 [9] was found to be 0.183 ± 0.017 s⁻¹. On CYP2C9 [10], the Michaelis-Menten constant (Km) was 5 µM and the “kcat (Literature)” value was 0.483 s⁻¹.

As for `COCCc1ccc(OCC(O)CNC(C)C)cc1` (stereo not drawn) [Metoprolol], on CYP2D6 [6] (CYP2D6, substrate conc. 100 μM), the “−rRH (metabolic stability), MesaPlate” value was 12.2 ± 2.2 nmol/min/nmol P450. On CYP2D6 [7] (CYP2D6, substrate conc. 100 μM), the “−rRH … Chromatography” value is given as 9.8 ± 2.3 nmol/min/nmol P450.

As for `C[C@]12CC[C@H]3[C@@H](CCC4=CC(=O)CC[C@@]43C)[C@@H]1CC[C@@H]2O` [Testosterone], the “kcat (MesaPlate)” value at CYP3A4 [11] (CYP3A4, Michaelis-Menten fit) was determined as 1.97 ± 0.13 s⁻¹. Further, at CYP3A4 [11] (human, Baculosomes with CYP3A4), the Km is 31 ± 7 µM.
